The results in this text go back to patent US20130090476A1, “Thiazolylpiperidine Derivatives as Fungicides” (priority 2009, published 2013).

The conditions of data set [1]: pH 2.7.
A short description of data set [2]: logP determination by HPLC (EEC Directive 79/831 Annex V.A8), LC-MS.
The subject of data set [3] is Phytophthora infestans. The experiment in a line: whole plant or invertebrate. Format: in vivo. The conditions noted are these: in Solanum lycopersicum, 168 h, read-out: efficacy.
The mark [4] stands for this setting: pH 2.7, log P (pH2.7), pH 2.7, value given in the preparation text.
Where [5] appears, read: pH 2.7, logP, * acidic range, pH 2.7, 0.1% aqueous formic acid/acetonitrile.
Setting [6] is: pH 7.8, logP, ** neutral range, pH 7.8, 0.001 molar aqueous ammonium bicarbonate/acetonitrile.
The mark [7] stands for this setting: * acidic range, pH 2.7, 0.1% aqueous formic acid/acetonitrile.

Read-outs that look alike come from different tables or passages of the source. Marks after values point to notes of the source that are not given here.

On to `O=C(Nc1cc(Cl)ccc1Cl)N1CCC(c2nc(CSc3nnnn3-c3ccccc3)cs2)CC1` [Compound I-49], for which the logP in data set [1] was 3.95*. On the same count and under the same terms, as for `Cc1ccc(C)c(NC(=O)N2CCC(c3nc(CSC45CC6CC(CC(C6)C4)C5)cs3)CC2)c1` [Compound I-72], the figure is 5.38*; as for `O=C(Cn1nc(C(F)F)cc1C(F)F)N1CCC(c2nc(CS(=O)(=O)c3nnnn3-c3ccccc3)cs2)CC1` [Compound I-29], 2.97*.

With `COc1ccc(C)cc1NC(=O)N1CCC(c2nc(CSc3nnnn3-c3ccccc3)cs2)CC1` [Compound I-33], in data set [1], the logP is 3.5*. With `Cc1ccc(C)c(NC(=O)N2CCC(c3nc(CSc4nnnn4-c4ccccc4)cs3)CC2)c1` [Compound I-84], the logP in data set [1] was 3.26*. Take `Cc1ccc(Cl)c(NC(=O)N2CCC(c3nc(CSc4nnnn4-c4ccccc4)cs3)CC2)c1` [Compound I-87]: in data set [1], the logP is on record as 3.72*.

For the compound `O=C(Cn1nc(C(F)(F)F)cc1C(F)(F)F)N1CCC(c2nc(CSc3nnnn3-c3ccccc3)cs2)CC1` [Compound I-34], in data set [1], the logP was 3.8*. As to `Cc1ccc(F)c(NC(=O)N2CCC(c3nc(CSc4nnnn4-c4ccccc4)cs3)CC2)c1` [Compound I-60], the logP in data set [1] is given as 3.28*. On to `Cc1cc(C(F)(F)F)nn1CC(=O)N1CCC(c2nc(CSc3cccc4ccccc34)cs2)CC1` [Compound I-1, 2-[5-Methyl-3-(trifluoromethyl)-1H-pyrazol-1-yl]-1-(4-{4-[(1-naphthylsulphanyl)methyl]-1,3-thiazol-2-yl}piperidin-1-yl)ethanone], for which the chromatographic logP in data set [2] (setting [4]) and in data set [2] (setting [5]) was 4.33 throughout. Also, the pest or weed control at 500 ppm in data set [3] is at least 70%. Consider `O=C(Cc1cc(Cl)ccc1Cl)N1CCC(c2nc(CSc3nnnn3-c3ccccc3)cs2)CC1` [Compound I-46], for which, in data set [1], the logP is 3.8*. `Cc1cc(C(F)(F)F)nn1CC(=O)N1CCC(c2nc(CS(=O)(=O)c3cccc4cccnc34)cs2)CC1` [Compound I-9, 1-(4-{4-[(Quinolin-8-ylsulphonyl)methyl]-1,3-thiazol-2-yl}piperidin-1-yl)-2-[5-methyl-3-(trifluoromethyl)-1H-pyrazol-1-yl]ethanone]: the chromatographic logP in data set [2] (setting [4]) and in data set [2] (setting [5]) was 2.63 throughout. Further, the pest or weed control at 500 ppm in data set [3] was at least 70%. In the case of `Cc1cc(C(F)(F)F)nn1CC(=O)N1CCC(c2nc(C[S+]([O-])c3cccc4ccccc34)cs2)CC1` (stereo not shown) [Compound I-13, 2-[5-Methyl-3-(trifluoromethyl)-1H-pyrazol-1-yl]-1-(4-{4-[(1-naphthylsulphinyl)methyl]-1,3-thiazol-2-yl}piperidin-1-yl)ethanone], the chromatographic logP in data set [2] (setting [4]) and in data set [2] (setting [5]) was 2.86 in each case. Moreover, in data set [3], the pest or weed control at 500 ppm was at least 70%. Take `O=C(Cn1nc(C(F)F)cc1C(F)F)N1CCC(c2nc(CSc3nnnn3-c3ccccc3)cs2)CC1` [Compound I-35]: the logP in data set [1] is 3.11*. For `Cc1cc(C(F)(F)F)nn1CC(=O)N1CCC(c2nc(CS(=O)(=O)C34CC5CC(CC(C5)C3)C4)cs2)CC1` [Compound I-6, 1-[4-(4-{[(3S,5S,7S)-Adamantan-1-ylsulphonyl]methyl}-1,3-thiazol-2-yl)piperidin-1-yl]-2-[5-methyl-3-(trifluoromethyl)-1H-pyrazol-1-yl]ethanone], in data set [1], the “log P (pH2.7)” value is 3.42 and the logP is 3.4*. For the compound `Cc1cc(C(F)(F)F)nn1CC(=O)N1CCC(c2nc(CS(=O)(=O)C3CCCCC3)cs2)CC1` [Compound I-7, 1-(4-{4-[(Cyclohexylsulphonyl)methyl]-1,3-thiazol-2-yl}piperidin-1-yl)-2-[5-methyl-3-(trifluoromethyl)-1H-pyrazol-1-yl]ethanone], the chromatographic logP (usually lipophilicity estimated from chromatographic retention) in data set [2] (setting [4]) is 2.9; in data set [2] (setting [5]), 2.9; in data set [2] (setting [6]) it was 2.87. Also, in data set [3], the pest or weed control at 500 ppm was at least 70%.

Consider `Cc1cc(C(F)(F)F)nn1CC(=S)N1CCC(c2nc(CSc3nnnn3-c3ccccc3)cs2)CC1` [Compound I-15, 2-[5-Methyl-3-(trifluoromethyl)-1H-pyrazol-1-yl]-1-[4-(4-{[(1-phenyl-1H-tetrazol-5-yl)sulphanyl]methyl}-1,3-thiazol-2-yl)piperidin-1-yl]ethanethione], for which the chromatographic logP in data set [2] (setting [4]) was 3.82; in data set [2] (setting [5]), 2.82; in data set [2] (setting [6]), 2.87. The pest or weed control at 500 ppm in data set [3] is at least 70%. Take `Cc1ccc(F)cc1NC(=O)N1CCC(c2nc(CSc3nnnn3-c3ccccc3)cs2)CC1` [Compound I-63]: the logP in data set [2] (setting [7]) was 3.2*. Regarding `Cc1cc(C(F)(F)F)nn1CC(=O)N1CCC(c2nc(CSC34CC5CC(CC(C5)C3)C4)cs2)CC1` [Compound I-2, 1-[4-(4-{[(3S,5S,7S)-Adamantan-1-ylsulphanyl]methyl}-1,3-thiazol-2-yl)piperidin-1-yl]-2-[5-methyl-3-(trifluoromethyl)-1H-pyrazol-1-yl]ethanone], in data set [1], the “log P (pH2.7)” value was determined as 5.21 and the logP was 5.21*.

Turning to `Cc1ccc(C)c(NC(=O)N2CCC(c3nc(CSC4CCCCC4)cs3)CC2)c1` [Compound I-16], the logP in data set [2] (setting [7]) is on record as 4.38*.

Regarding `Cc1cc(C(F)(F)F)nn1CC(=O)N1CCC(c2nc(CSc3ccccc3-c3ccccc3)cs2)CC1` [Compound I-69], the logP in data set [2] (setting [7]) is 4.49*. Turning to `O=C(Cn1nc(C(F)(F)F)cc1C(F)(F)F)N1CCC(c2nc(CS(=O)(=O)c3nnnn3-c3ccccc3)cs2)CC1` [Compound I-26], the logP in data set [2] (setting [7]) was 3.59*. Regarding `Cc1ccc([N+](=O)[O-])cc1NC(=O)N1CCC(c2nc(CSc3nnnn3-c3ccccc3)cs2)CC1` [Compound I-18], the logP in data set [1] is on record as 3.09*.

Regarding `Cc1ccc(Cl)cc1NC(=O)N1CCC(c2nc(CSc3nnnn3-c3ccccc3)cs2)CC1` [Compound I-24], the logP in data set [1] is reported as 3.43*. Compound `CC(C)(C)OC(=O)N1CCC(c2nc(CSc3cccc4cccnc34)cs2)CC1` [IV-5, tert-Butyl 4-{4-[(quinolin-8-ylsulphanyl)methyl]-1,3-thiazol-2-yl}piperidine-1-carboxylate] yielded a chromatographic logP in data set [2] (setting [4]) of 3.71. On to `Cc1noc(C)c1NC(=O)N1CCC(c2nc(CSc3nnnn3-c3ccccc3)cs2)CC1` [Compound I-75], for which, in data set [2] (setting [7]), the logP is listed as 2.22*. On the same count and under the same terms, as for `O=C(Nc1cc(F)ccc1F)N1CCC(c2nc(CSc3nnnn3-c3ccccc3)cs2)CC1` [Compound I-56], the figure is 3.27*. Regarding `Cc1cc(C(F)(F)F)nn1CC(=O)N1CCC(c2nc(CS(=O)(=O)c3cccc4ccccc34)cs2)CC1` [Compound I-10, 2-[5-Methyl-3-(trifluoromethyl)-1H-pyrazol-1-yl]-1-(4-{4-[(1-naphthylsulphonyl)methyl]-1,3-thiazol-2-yl}piperidin-1-yl)ethanone], the chromatographic logP in data set [2] (setting [4]) turned out to be 3.21; in data set [2] (setting [5]), 3.19. Moreover, the pest or weed control at 500 ppm in data set [3] is at least 70%. In the case of `Cc1cc(C(F)(F)F)nn1CC(=O)N1CCC(c2nc(CSc3cccc4cccnc34)cs2)CC1` [Compound I-5, 1-(4-{4-[(Quinolin-8-ylsulphanyl)methyl]-1,3-thiazol-2-yl}piperidin-1-yl)-2-[5-methyl-3-(trifluoromethyl)-1H-pyrazol-1-yl]ethanone], the chromatographic logP in data set [2] (setting [4]) and in data set [2] (setting [5]) was 3 each time. `Cc1cc(C(F)(F)F)nn1CC(=O)N1CCC(c2nc(CSc3nnnn3-c3ccccc3)cs2)CC1` [Compound I-4, 2-[5-Methyl-3-(trifluoromethyl)-1H-pyrazol-1-yl]-1-[4-(4-{[(1-phenyl-1H-tetrazol-5-yl)sulphanyl]methyl}-1,3-thiazol-2-yl)piperidin-1-yl]ethanone]: the results for the chromatographic logP in data set [2] (setting [4]), in data set [2] (setting [5]) and in data set [2] (setting [6]) were 3.25, 3.25 and 3.26, respectively. In turn, `CC(C)(C)OC(=O)N1CCC(c2nc(CSC3=NOC(c4ccccc4)C3)cs2)CC1` (stereo not shown) [IV-6, tert-Butyl 4-[4-({[5-phenyl-4,5-dihydro-1,2-oxazol-3-yl]sulphanyl}methyl)-1,3-thiazol-2-yl]piperidine-1-carboxylate] gave a chromatographic logP in data set [2] (setting [4]) of 4.25.

In the case of `Cc1cc(C(F)(F)F)nn1CC(=O)N1CCC(c2nc(CSC3CCCCC3)cs2)CC1` [Compound I-3, 1-(4-{4-[(Cyclohexylsulphanyl)methyl]-1,3-thiazol-2-yl}piperidin-1-yl)-2-[5-methyl-3-(trifluoromethyl)-1H-pyrazol-1-yl]ethanone], the chromatographic logP in data set [2] (setting [4]) and in data set [2] (setting [5]) was 4.3 throughout. In addition, in data set [3], the pest or weed control at 500 ppm is at least 70%. As to `ClC1=NOC(c2ccccc2)C1` (stereo not shown) [Compound X-1, 3-Chloro-5-phenyl-4,5-dihydro-1,2-oxazole], the chromatographic logP in data set [2] (setting [4]) stood at 2.36.

With `O=C(Nc1cc(C(F)(F)F)ccc1Cl)N1CCC(c2nc(CSc3nnnn3-c3ccccc3)cs2)CC1` [Compound I-76], the logP in data set [2] (setting [7]) was 4.2*. Consider `Cc1ccc(C)c(NC(=S)N2CCC(c3nc(CSc4nnnn4-c4ccccc4)cs3)CC2)c1` [Compound I-98], for which the logP in data set [1] is listed as 3.52*. Take `Cc1cc(C(F)(F)F)nn1CC(=O)N1CCC(c2nc(C[S+]([O-])c3cccc4cccnc34)cs2)CC1` (stereo not shown) [Compound I-12, 1-(4-{4-[(Quinolin-8-ylsulphinyl)methyl]-1,3-thiazol-2-yl}piperidin-1-yl)-2-[5-methyl-3-(trifluoromethyl)-1H-pyrazol-1-yl]ethanone]: the chromatographic logP in data set [2] (setting [4]) and in data set [2] (setting [5]) was 2.48 throughout. As for `Cc1ccc(C)c(CC(=O)N2CCC(c3nc(CSc4cccc5ccccc45)cs3)CC2)c1` [Compound I-43], in data set [2] (setting [7]), the logP is given as 4.86*. On to `COc1ccc(OC)c(NC(=O)N2CCC(c3nc(CSc4nnnn4-c4ccccc4)cs3)CC2)c1` [Compound I-25], for which the logP in data set [2] (setting [7]) was 3.26*. Turning to `S=C(Nc1cc(Cl)ccc1Cl)N1CCC(c2nc(CSc3nnnn3-c3ccccc3)cs2)CC1` [Compound I-52], in data set [2] (setting [7]), the logP is 3.77*. The same measure, in the same setting: as for `Cc1ccc(C)c(NC(=O)N2CCC(c3nc(CSc4cccc5ccccc45)cs3)CC2)c1` [Compound I-47], the figure is 4.37*.
